pIC50: −log10 of the molar value.
Key:
[1] = Aqueous chemical stability (HPLC-MS); format: physicochemical
Experimental: Detection of products of non-enzymatic cleavage (AIC-TMZ, AIC-TP3, AIC-TP5, and AIC-TP9) was performed (Table 4; FIGS. 5A-5D).

[2] = test system: U87 cells; assay: U87 subcutaneous flank xenograft GBM model; format: in vivo, SCID mice; conditions: 20 mg/kg orally, once daily then every other day, 14 days
Experimental: A suspension of U87 cells was prepared in 1×HBSS, pH 7.4 and mixed with an equal volume (1:1) of ice cold Matrigel®. Then, 0.1 mL of the cell suspension containing 5×10^6 cells was injected subcutaneously using a 22-gauge needle into the flank region of SCID mice. Animals were monitored daily during the period between inoculation and study initiation. Treatment was started when the average tumor size reached approximately ˜100 mm^3. The test (TP3) and Reference compound (TMZ) were administered orally at 20 mg/kg at a dose volume of 10 mL/Kg. The exact dose was administered based on individual animal body weight recorded during the study period. The TP3 and TMZ treatments were scheduled for once daily dosing for 14 days. However, the dose frequency had to be reduced from once daily to every other day, due to a 10-14% loss of body weight seen in the treated mice from Day 9 until study completion (FIG. 11D). The control group was administered vehicle alone. The test and reference compounds were formulated in 0.4% (v/v) Tween 80, 2% (v/v) Glycerol and 97.6% (v/v) of 30% (w/v) Captisol (SPECD). Number of mice per treatment cohort=8. Tumor growth was measured twice weekly using a digital Vernier caliper.

[3] = test system: A172; assay: cells; conditions: Homo sapiens, A 172, 72 h, read-out: IC50, 72 h
Experimental: The effect of selected compounds on glioma cells viability was determined. The cells were plated at 2000 cells/well in 96 well plates. The day after, cells were treated with various concentrations of temozolomide or VMY-TP analogs.
Activity of TP-RGD was assessed in glioma cell cultures, as described in Example 11.

[4] = test system: U87-Luc; assay: Orthotopic U87-Luc human glioblastoma tumor xenograft model; format: in vivo, Athymic Nude mice; conditions: 10 mg/kg oral gavage
Experimental: Animal studies were performed in accordance with Translational Drug Development, LLC IACUC-approved protocols. Intracranial tumors were generated by injecting 3×10^5 U87-Luc cells in […] of growth media into the right corpus striatum (1 mm anterior and 2 mm lateral to the bregma, depth of 3 mm) of Athymic Nude (Crl:NU(NCr)-Foxn1nu) mice (Charles River, Hollister, CA). Treatment was initiated 7 days after injection. […] Oral gavage treatments were formulated in 10% PEG300 in PBS. Bioluminescence (Total ROI, photons/s) images were performed under anesthesia once weekly starting on Day 1 (7 days post inoculation of U87-Luc cells) and body weights were recorded twice weekly. […] Upon peri-morbidity or at study end, mice were euthanized, brain tumor was excised from right side of brain, and a wet weight was recorded. If tumor was not grossly identifiable, expected tumor-region of the brain was collected. Tissue was fixed in formalin for 48-72 hours and then stored in 70% Ethanol.
A minimum of 100 μL/mouse of whole blood was collected via submandibular survival bleed on Day 10 and Day 27 from 3 mice per group (selected by TD2) from Groups 1, 2 and 4 for assessment of hematological toxicity. Blood was placed in K2-EDTA microtainer tubes (Becton, Dickinson & Co.; Franklin Lakes, NJ) and mixed thoroughly before CBC analysis at TD2.

[5] = test system: U251; assay: cells; conditions: Homo sapiens, U-251, 72 h, read-out: IC50 U251 cell proliferation (BrdU ELISA)
Experimental: U87 cells were seeded at the density of 2,000 cells/well in 96-well plates and incubated overnight. The day after, cells were treated with various concentrations of Temozolomide or analogs for 72 hours. The BrdU ELISA proliferation assay was performed according to the manufacturer's instructions (Roche, #11647229001). Briefly, 20 μl of diluted BrdU labelling reagent was added to each well, to a final concentration of 10 μM BrdU per well. The cells were then incubated at 37° C. for 24 hours. Following this incubation, the labeling medium was aspirated from each well and 200 μl of Roche FixDenat fixing buffer was added. The plates were then incubated at 25° C. for 30 minutes. The fixing solution was removed, and 100 μl of Anti-BrdU-POD antibody was added to each well and incubated again at 25° C. for 90 minutes. Wells were rinsed three times with 200 μl of PBS, then 100 μl of Roche Substrate solution was added to each well. Following a 25 minute incubation at room temperature, the absorbance of each plate was read at 370 nm (reference wavelength: approx. 492 nm) on a Spectramax® i3x microplate reader.
The effect on U251 cell proliferation after 72 hours of treatment was also assessed using the BrdU ELISA cell proliferation assay as described in Example 11.

[6] = background statement; cited from earlier work

pIC50 [3] | pIC50 [5] | Structure (SMILES) | half-life at 1 μM ([1]; 0.1 M phosphate buffer pH 7.0) [min] | half-life at 1 μM ([1]; 0.1 M phosphate buffer pH 8.0) [min] | half-life at 1 μM ([1]; PBS pH 7.4) [min] | tumor volume [2] | tumor weight [2] | effect on body weight ([4]; QD×5×4, compared to control) | day 22 mean BLI value ([4]; QD×5×4, control 2.43E+08) [photon/s] | retention in the cerebral parenchyma [6] [%]
– | – | CCCCCCNC(=O)c1ncn2c(=O)n(C)nnc12 [TP3, N-hexyl-3-methyl-4-oxo-3,4-dihydroimidazo[5,1-d][1,2,3,5]tetrazine-8-carboxamide] | 119 | 39 | 62 | significantly reduced | significantly reduced | – | – | –
< 4.00 | < 3.70 | Cn1nnc2c(C(N)=O)ncn2c1=O [TMZ, temozolomide] | – | 31 | 59 | – | – | impacted body weight | 1.87E+06 | 20
